The molecules below were run against T1, Recombinant human JARID1B/KDM5B (Homo sapiens, UniProt Q9UGL1) (assay: LANCE Ultra TR-FRET demethylase assay with FLAG-tagged JARID1B). Conditions: 100 nM compound; 500 nM biotinylated H3K4me3 peptide substrate.
T1 construct: purchased Active Motif 31432; host or cells: Sf9 insect cells
T1 sequence (Q9UGL1 whole entry): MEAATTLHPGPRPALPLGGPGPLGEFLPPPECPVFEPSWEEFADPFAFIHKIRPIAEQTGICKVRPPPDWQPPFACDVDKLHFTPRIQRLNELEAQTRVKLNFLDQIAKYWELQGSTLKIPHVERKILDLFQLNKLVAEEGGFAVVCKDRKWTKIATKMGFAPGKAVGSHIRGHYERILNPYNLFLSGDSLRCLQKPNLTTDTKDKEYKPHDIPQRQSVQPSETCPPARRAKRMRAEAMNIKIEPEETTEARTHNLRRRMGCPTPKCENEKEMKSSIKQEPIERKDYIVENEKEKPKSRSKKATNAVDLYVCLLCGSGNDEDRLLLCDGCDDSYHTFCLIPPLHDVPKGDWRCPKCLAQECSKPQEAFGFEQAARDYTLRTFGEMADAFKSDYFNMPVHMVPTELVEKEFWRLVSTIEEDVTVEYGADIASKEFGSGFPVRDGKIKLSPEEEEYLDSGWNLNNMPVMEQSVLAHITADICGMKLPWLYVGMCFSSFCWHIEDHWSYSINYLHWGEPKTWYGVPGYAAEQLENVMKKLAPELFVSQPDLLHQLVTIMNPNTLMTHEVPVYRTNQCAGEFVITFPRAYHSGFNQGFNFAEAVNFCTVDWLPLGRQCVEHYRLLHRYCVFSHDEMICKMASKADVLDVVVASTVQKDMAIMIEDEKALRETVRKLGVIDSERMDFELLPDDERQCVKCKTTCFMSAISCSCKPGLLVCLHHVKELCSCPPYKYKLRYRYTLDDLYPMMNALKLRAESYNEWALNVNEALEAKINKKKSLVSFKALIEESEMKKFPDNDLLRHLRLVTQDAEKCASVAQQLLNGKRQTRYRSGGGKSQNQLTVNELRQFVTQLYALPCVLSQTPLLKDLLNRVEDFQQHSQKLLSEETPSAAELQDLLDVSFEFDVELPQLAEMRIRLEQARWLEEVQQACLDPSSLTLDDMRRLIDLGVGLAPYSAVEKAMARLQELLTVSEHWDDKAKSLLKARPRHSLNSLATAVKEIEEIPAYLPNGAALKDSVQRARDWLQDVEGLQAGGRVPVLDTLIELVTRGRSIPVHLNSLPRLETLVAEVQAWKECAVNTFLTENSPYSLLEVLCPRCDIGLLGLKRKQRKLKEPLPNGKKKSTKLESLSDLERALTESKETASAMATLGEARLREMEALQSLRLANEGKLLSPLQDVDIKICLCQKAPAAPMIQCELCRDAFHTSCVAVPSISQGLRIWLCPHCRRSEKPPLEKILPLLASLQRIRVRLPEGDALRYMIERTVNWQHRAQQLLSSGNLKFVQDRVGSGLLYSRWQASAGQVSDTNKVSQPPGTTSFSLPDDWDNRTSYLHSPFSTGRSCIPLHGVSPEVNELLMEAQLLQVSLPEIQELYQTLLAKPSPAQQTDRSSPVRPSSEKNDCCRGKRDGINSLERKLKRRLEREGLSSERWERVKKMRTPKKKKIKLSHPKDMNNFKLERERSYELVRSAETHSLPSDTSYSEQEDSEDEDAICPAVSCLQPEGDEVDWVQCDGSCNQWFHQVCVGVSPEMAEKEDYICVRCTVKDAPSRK
Type: biochemical
Outline: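 Sf9-expressed N-FLAG full-length JARID1B (10–30 nM) preincubated 5 min with compound at 20, 1 or 0.1 uM (1% DMSO), then 500 nM biotin-H3K4me3 peptide, 500 uM 2-OG, 25 uM Fe(II), 2 mM ascorbate added; 30 min at room temperature in Hepes pH 7.5. H3K4me2/1 product read by TR-FRET 665/590 ratio.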
`CN1CCN(C(=O)CNCc2nccc3c(=O)[nH]c(COc4ccc(F)c(Cl)c4)nc23)CC1` [Example 226, 2-((3-chloro-4-fluorophenoxy)methyl)-8-(((2-(4-methylpiperazin-1-yl)-2-oxoethyl)amino)methyl)pyrido[3,4-d]pyrimidin-4(3H)-one] showed an inhibition at 0.1 µM of over 50%. In the case of `O=c1[nH]c(COc2ccc(F)c(Cl)c2)nc2c(CNCCCn3ccnc3)nccc12` [Example 165, 8-(((3-(1H-imidazol-1-yl)propyl)amino)methyl)-2-((3-chloro-4-fluorophenoxy)methyl)pyrido[3,4-d]pyrimidin-4(3H)-one], the inhibition at 0.1 µM is reported as over 50%. Molecule `CCN(CC)C1CCN(C(=O)CNCc2nccc3c(=O)[nH]c(COc4ccc(F)c(Cl)c4)nc23)C1` (stereo not shown) [Example 236, 2-((3-chloro-4-fluorophenoxy)methyl)-8-(((2-(3-(diethylamino)pyrrolidin-1-yl)-2-oxoethyl)amino)methyl)pyrido[3,4-d]pyrimidin-4(3H)-one] has an inhibition at 0.1 µM of over 50%. In the case of `Cc1cc(Cl)ccc1OCc1nc2c(CNCC3CCNCC3)nccc2c(=O)[nH]1` [Example 137, 2-((4-chloro-2-methylphenoxy)methyl)-8-(((piperidin-4-ylmethyl)amino)methyl)pyrido[3,4-d]pyrimidin-4(3H)-one], the inhibition at 0.1 µM is reported as 20 to 50%. In the case of `Cc1cc(C)n(CCNCc2nccc3c(=O)[nH]c(COc4ccc(F)c(Cl)c4)nc23)n1` [Example 183, 2-((3-chloro-4-fluorophenoxy)methyl)-8-(((2-(3,5-dimethyl-1H-pyrazol-1-yl)ethyl)amino)methyl)pyrido[3,4-d]pyrimidin-4(3H)-one], the inhibition at 0.1 µM is reported as under 20%. For `CN1CCC(CNCc2nccc3c(=O)[nH]cnc23)CC1` [Example 95, 8-((((1-methylpiperidin-4-yl)methyl)amino)methyl)pyrido[3,4-d]pyrimidin-4(3H)-one], the inhibition at 0.1 µM was 20 to 50%. In the case of `C[C@@H](Oc1ccc(Cc2ccccc2)cc1)c1nc2c(CNCC3CCN(C)CC3)nccc2c(=O)[nH]1` [Example 216, (R)-2-(1-(4-benzylphenoxy)ethyl)-8-((((1-methylpiperidin-4-yl)methyl)amino)methyl)pyrido[3,4-d]pyrimidin-4(3H)-one], the inhibition at 0.1 µM is reported as over 50%. With `O=c1[nH]c(COc2ccc(F)cc2F)nc2c(CNCC3CCNCC3)nccc12` [Example 124, 2-((2,4-difluorophenoxy)methyl)-8-(((piperidin-4-ylmethyl)amino)methyl)pyrido[3,4-d]pyrimidin-4(3H)-one] the inhibition at 0.1 µM was 20 to 50%. Work on `Cc1cnc(CNCc2nccc3c(=O)[nH]c(COc4ccc(F)c(Cl)c4)nc23)cn1` [Example 166, 2-((3-chloro-4-fluorophenoxy)methyl)-8-((((5-methylpyrazin-2-yl)methyl)amino)methyl)pyrido[3,4-d]pyrimidin-4(3H)-one] yielded an inhibition at 0.1 µM of 20 to 50%. In the case of `O=C(CNCc1nccc2c(=O)[nH]c(COc3ccc(F)c(Cl)c3)nc12)N[C@H]1CCCNC1` [Example 231, (S)-2-(((2-((3-chloro-4-fluorophenoxy)methyl)-4-oxo-3,4-dihydropyrido[3,4-d]pyrimidin-8-yl)methyl)amino)-N-(piperidin-3-yl)acetamide], the inhibition at 0.1 µM is reported as over 50%. `CN1CCC(CNCc2nccc3c(=O)[nH]c(C4CCCO4)nc23)CC1` (stereo not shown) [Example 194, 8-((((1-methylpiperidin-4-yl)methyl)amino)methyl)-2-(tetrahydrofuran-2-yl)pyrido[3,4-d]pyrimidin-4(3H)-one] showed an inhibition at 0.1 µM of under 20%. `CN1CCC(CNCc2nccc3c(=O)[nH]c(COCc4ccccc4)nc23)C1` (stereo not shown) [Example 205, 2-((benzyloxy)methyl)-8-((((1-methylpyrrolidin-3-yl)methyl)amino)methyl)pyrido[3,4-d]pyrimidin-4(3H)-one] gave an inhibition at 0.1 µM of 20 to 50%. Work on `O=c1[nH]cnc2c(CNC[C@@H]3CCCNC3)nccc12` [Example 98, (R)-8-(((piperidin-3-ylmethyl)amino)methyl)pyrido[3,4-d]pyrimidin-4(3H)-one] yielded an inhibition at 0.1 µM of under 20%. With `O=C(NCCN1CCOCC1)c1cccc(OCc2nc3cnccc3c(=O)[nH]2)c1` [Example 40, N-(2-morpholinoethyl)-3-((4-oxo-3,4-dihydropyrido[3,4-d]pyrimidin-2-yl)methoxy)benzamide] the inhibition at 0.1 µM was under 20%. For `CC(NCc1nccc2c(=O)[nH]cnc12)C1CCNCC1` (stereo not shown) [Example 94, 8-(((1-(piperidin-4-yl)ethyl)amino)methyl)pyrido[3,4-c]pyrimidin-4(3H)-one], the inhibition at 0.1 µM was under 20%. Molecule `CN1CCC(N2CCC(CNCc3nccc4c(=O)[nH]cnc34)CC2)CC1` [Example 97, 8-((((1′-methyl-[1,4′-bipiperidin]-4-yl)methyl)amino)methyl)pyrido[3,4-d]pyrimidin-4(3H)-one] has an inhibition at 0.1 µM of 20 to 50%. Work on `O=c1[nH]c(COc2ccc(Cc3ccccc3)cc2)nc2c(CNC[C@H]3CCCO3)nccc12` [Example 148, (R)-2-((4-benzylphenoxy)methyl)-8-((((tetrahydrofuran-2-yl)methyl)amino)methyl)pyrido[3,4-d]pyrimidin-4(3H)-one] yielded an inhibition at 0.1 µM of 20 to 50%. Work on `O=c1[nH]c(COc2ccc(F)c(Cl)c2)nc2c(CNCCc3cccs3)nccc12` [Example 176, 2-((3-chloro-4-fluorophenoxy)methyl)-8-(((2-(thiophen-2-yl)ethyl)amino)methyl)pyrido[3,4-d]pyrimidin-4(3H)-one] yielded an inhibition at 0.1 µM of 20 to 50%. Work on `Cc1ccccc1OCc1nc2c(CNCC3CCNCC3)nccc2c(=O)[nH]1` [Example 118, 8-(((piperidin-4-ylmethyl)amino)methyl)-2-((o-tolyloxy)methyl)pyrido[3,4-d]pyrimidin-4(3H)-one] yielded an inhibition at 0.1 µM of 20 to 50%. `Cc1cc(OCc2nc3c(CNCC4CCNCC4)nccc3c(=O)[nH]2)ccc1Cl` [Example 134, 2-((4-chloro-3-methylphenoxy)methyl)-8-(((piperidin-4-ylmethyl)amino)methyl)pyrido[3,4-d]pyrimidin-4(3H)-one] gave an inhibition at 0.1 µM of 20 to 50%. `O=c1[nH]c(COc2ccc(F)c(Cl)c2)nc2c(CNCc3ncccn3)nccc12` [Example 180, 2-((3-chloro-4-fluorophenoxy)methyl)-8-(((pyrimidin-2-ylmethyl)amino)methyl)pyrido[3,4-d]pyrimidin-4(3H)-one] was tested, and the inhibition at 0.1 µM was 20 to 50%. `O=C(CNCc1nccc2c(=O)[nH]c(COc3ccc(F)c(Cl)c3)nc12)N1CCCCC1` [Example 224, 2-((3-chloro-4-fluorophenoxy)methyl)-8-(((2-oxo-2-(piperidin-1-yl)ethyl)amino)methyl)pyrido[3,4-d]pyrimidin-4(3H)-one] showed an inhibition at 0.1 µM of 20 to 50%. `O=c1[nH]c(COc2ccccc2F)nc2c(CNCC3CCNCC3)nccc12` [Example 116, 2-((2-fluorophenoxy)methyl)-8-(((piperidin-4-ylmethyl)amino)methyl)pyrido[3,4-d]pyrimidin-4(3H)-one] showed an inhibition at 0.1 µM of 20 to 50%. Molecule `O=c1[nH]c(COc2ccccc2)nc2c(CNCC3CCNCC3)nccc12` [Example 123, 2-(phenoxymethyl)-8-(((piperidin-4-ylmethyl)amino)methyl)pyrido[3,4-d]pyrimidin-4(3H)-one] has an inhibition at 0.1 µM of 20 to 50%. In the case of `O=c1[nH]c(COc2ccc(F)c(Cl)c2)nc2c(CNCc3cccnc3)nccc12` [Example 172, 2-((3-chloro-4-fluorophenoxy)methyl)-8-(((pyridin-3-ylmethyl)amino)methyl)pyrido[3,4-d]pyrimidin-4(3H)-one], the inhibition at 0.1 µM is reported as over 50%. `O=C(CNCc1nccc2c(=O)[nH]c(COc3ccc(F)c(Cl)c3)nc12)N[C@@H]1CCCNC1` [Example 230, (R)-2-(((2-((3-chloro-4-fluorophenoxy)methyl)-4-oxo-3,4-dihydropyrido[3,4-d]pyrimidin-8-yl)methyl)amino)-N-(piperidin-3-yl)acetamide] gave an inhibition at 0.1 µM of over 50%. In the case of `N#Cc1ccc(OCc2nc3c(CNCC4CCNCC4)nccc3c(=O)[nH]2)cc1` [Example 129, 4-((4-oxo-8-(((piperidin-4-ylmethyl)amino)methyl)-3,4-dihydropyrido[3,4-d]pyrimidin-2-yl)methoxy)benzonitrile], the inhibition at 0.1 µM is reported as 20 to 50%. `CCCOC1CCN(Cc2cccc(OCc3nc4cnccc4c(=O)[nH]3)c2)CC1` [Example 43, 2-((3-((4-propoxypiperidin-1-yl)methyl)phenoxy)methyl)pyrido[3,4-d]pyrimidin-4(3H)-one] was tested, and the inhibition at 0.1 µM was 20 to 50%. For `O=C1CCCN1CCCNCc1nccc2c(=O)[nH]cnc12` [Example 88, 8-(((3-(2-oxopyrrolidin-1-yl)propyl)amino)methyl)pyrido[3,4-d]pyrimidin-4(3H)-one], the inhibition at 0.1 µM was under 20%. Work on `O=c1[nH]c(COc2ccc(Cc3ccccc3)cc2)nc2c(CNCCN3CCOCC3)nccc12` [Example 157, 2-((4-benzylphenoxy)methyl)-8-(((2-morpholinoethyl)amino)methyl)pyrido[3,4-d]pyrimidin-4(3H)-one] yielded an inhibition at 0.1 µM of 20 to 50%. With `O=c1[nH]c(COc2ccc(F)c(Cl)c2)nc2c(CNCC3CCNCC3)nccc12` [Example 126, 2-((3-chloro-4-fluorophenoxy)methyl)-8-(((piperidin-4-ylmethyl)amino)methyl)pyrido[3,4-d]pyrimidin-4(3H)-one] the inhibition at 0.1 µM was over 50%. With `CC(Oc1ccc(Cc2ccccc2)cc1)c1nc2c(CNCC3CCN(C)C3)nccc2c(=O)[nH]1` (stereo not shown) [Example 214, 2-(1-(4-benzylphenoxy)ethyl)-8-((((1-methylpyrrolidin-3-yl)methyl)amino)methyl)pyrido[3,4-d]pyrimidin-4(3H)-one] the inhibition at 0.1 µM was 20 to 50%. `CCc1ccc(OCc2nc3c(CNCC4CCNCC4)nccc3c(=O)[nH]2)cc1` [Example 135, 2-((4-ethylphenoxy)methyl)-8-(((piperidin-4-ylmethyl)amino)methyl)pyrido[3,4-d]pyrimidin-4(3H)-one] showed an inhibition at 0.1 µM of 20 to 50%. Work on `CN1CCC(CNCc2nccc3c(=O)[nH]c(COCc4cccc(Cl)c4)nc23)CC1` [Example 207, 2-(((3-chlorobenzyl)oxy)methyl)-8-((((1-methylpiperidin-4-yl)methyl)amino)methyl)pyrido[3,4-d]pyrimidin-4(3H)-one] yielded an inhibition at 0.1 µM of over 50%.

Source: patent publication US9834550B2, “Pyridopyrimidinone compounds for modulating the catalytic activity of histone lysine demethylases (KDMs)” (Dong-A Socio Holdings Co., Ltd., priority 2014, dated 2017)
